Laboratory results: paper PMC10632401, “Cell-free biosynthesis combined with deep learning accelerates de novo-development of antimicrobial peptides” (Nature Communications, 2023)
≈ marks a conversion by molar mass, not a printed value. Residues, ends and D or L forms follow the SMILES beside them. No end group written: not given here.

Tests used:
E. coli = format: cell-based, Escherichia coli; conditions: daily passage from cells grown at half-MIC, n=3
B. subtilis PY79 = conditions: PY79, 20 h
E. coli MG1655 = conditions: MG1655, 20 h
P. aeruginosa DSM 1117 = conditions: DSM 1117, 20 h
[1] = tested on: A. baumannii (isolate from the human abdominal wall); conditions: 20 h
[2] = tested on: E. faecium (isolate from the gut of the cow); conditions: 20 h
K. pneumoniae DSM 30104 = conditions: DSM 30104, 20 h
in vitro = conditions: human
S. pneumoniae D39 = conditions: D39, 20 h
[3] = tested on: S. aureus DSM 11729 (MRSA); conditions: DSM 11729, 20 h
Escherichia coli MG1655 = assay: Outer membrane vesicle (OMV) release after AMP treatment; format: cell-based; conditions: ¼ MIC, 90 min
Method: Escherichia coli MG1655 was grown on MacConkey agar (Carl Roth, Karlsruhe, Germany) plates overnight. For overnight culture, a single colony was used for inoculation of 2 mL LB media at 37 °C, 160 rpm (MaxQ 6000, Thermo Fisher Scientific, Karlsruhe, Germany). Bacterial culture was transferred to 10 mL fresh LB media and incubated (1 h, 37 °C, 160 rpm). The required amount of bacteria was treated with ¼ MIC of the AMPs #3, #5, #10, #13, #15, #16, and #27, left untreated for control or was treated with acetic acid and BSA as solvent control (90 min, 37 °C, 160 rpm). Samples were centrifuged (4,500 x g, 15 min, 4 °C; Multifuge X3R, Thermo Fisher Scientific), the supernatant was sterile filtered (0.22 µm) and afterwards concentrated by the factor of 20 using 100 kDa molecular weight cut-off filters (Merck KGaA, Darmstadt, Germany). To determine the number of released vesicles, samples were measured by nano-flow cytometry (nFCM) using a NanoAnalyzer (NanoFCM Co., Ltd, Nottingham, UK)[64].

Compound: C[C@@H](O)[C@H]1C(=O)N2C(C(=O)O)=C(SCCN=CN)C[C@H]12 [imipenem]
- increase in MIC during 21 days of serial passage (E. coli): up to 8 fold

Compound: H-MCFFPRRKSKVKVKGGLCRLLFIFFKTTFCFKAKTKKEIKKGTGKKIVR-NH2 (cysteines drawn unpaired) [AMP #18]
- B. subtilis MIC (B. subtilis PY79): 3.1 µM
- E. coli MIC (E. coli MG1655): 50.0 µM
- CC50: 153 µM

Compound: MEAFKKKPRLPLFKVKLTRFLERARGLGSYRIFEFFKKFGVKKFVSSLR-NH2 [AMP #15]
- B. subtilis MIC (B. subtilis PY79): 0.8 µM
- MIC P. aeruginosa (P. aeruginosa DSM 1117): 12.5 µM
- MIC A. baumannii [1]: 1.6 µM
- E. coli MIC (E. coli MG1655): 25.0 µM
- MIC E. faecium [2]: 1.6 µM
- MIC K. pneumoniae (K. pneumoniae DSM 30104): 1.6 µM
- CC50 at 24 h (in vitro): 30.7 µM
- MIC S. pneumoniae (S. pneumoniae D39): 25.0 µM

Compound: H-MCFCRYRFFYRRRIRFFKWGPYFYVWFGFPFGRKAFFLSVFRRRFC-NH2 (cysteines drawn unpaired) [AMP #19]
- B. subtilis MIC (B. subtilis PY79): 8.4 µM
- E. coli MIC (E. coli MG1655): 25.0 µM
- CC50: > 250 µM

Compound: CC[C@H](C)[C@H](NC(=O)[C@H](CCCNC(=N)N)NC(=O)[C@H](CCCNC(=N)N)NC(=O)[C@@H](NC(=O)[C@H](C)NC(=O)[C@H](CCC(=O)O)NC(=O)[C@H](CCCCN)NC(=O)[C@H](CCCNC(=N)N)NC(=O)[C@H](CO)NC(=O)[C@H](CCCNC(=N)N)NC(=O)[C@H](CC(C)C)NC(=O)[C@@H](NC(=O)[C@H](CC(N)=O)NC(=O)[C@H](CCCNC(=N)N)NC(=O)[C@@H](NC(=O)[C@H](CCCCN)NC(=O)[C@H](CCSC)NC(=O)[C@@H](N)CCSC)[C@@H](C)CC)[C@@H](C)O)C(C)C)C(=O)N[C@@H](Cc1ccccc1)C(=O)N[C@@H](CO)C(=O)N[C@@H](CC(C)C)C(=O)N[C@@H](CCCNC(=N)N)C(=O)N[C@@H](CCCNC(=N)N)C(=O)N[C@@H](CCCNC(=N)N)C(=O)N[C@@H](CO)C(=O)N[C@H](C(=O)N[C@@H](Cc1ccccc1)C(=O)N[C@H](C(=O)N[C@@H](CCC(=O)O)C(=O)N[C@@H](CCSC)C(=O)N[C@@H](C)C(=O)N[C@@H](CCCNC(=N)N)C(=O)N[C@@H](C)C(=O)N[C@@H](Cc1ccccc1)C(=O)N[C@@H](CCCNC(=N)N)C(=O)N[C@@H](CCCNC(=N)N)C(=O)N[C@@H](Cc1ccccc1)C(=O)N[C@@H](CCCCN)C(=O)N[C@@H](C)C(=O)N[C@@H](CCCNC(=N)N)C(N)=O)[C@@H](C)O)C(C)C [AMP #28] (H-MMKIRNTLRSRKEAVRRIFSLRRRSVFTEMARAFRRFKAR-NH2)
- B. subtilis MIC (B. subtilis PY79): 0.4 µM
- MIC P. aeruginosa (P. aeruginosa DSM 1117): 25.0 µM (≈ 126 µg/mL)
- MIC A. baumannii [1]: 1.6 µM (≈ 8.05 µg/mL)
- E. coli MIC (E. coli MG1655): 25.0 µM
- MIC E. faecium [2]: 3.1 µM (≈ 15.6 µg/mL)
- MIC K. pneumoniae (K. pneumoniae DSM 30104): 12.5 µM (≈ 62.9 µg/mL)
- CC50 at 24 h (in vitro): 145 µM

Compound: MNTTSNMIHRAVQQKRISFRAAKLTVLFLFKRRLLRRLLRHHEN-NH2 [AMP #27]
- B. subtilis MIC (B. subtilis PY79): 0.4 µM
- MIC P. aeruginosa (P. aeruginosa DSM 1117): 12.5 µM
- MIC A. baumannii [1]: 2.4 µM
- E. coli MIC (E. coli MG1655): 12.5 µM
- MIC E. faecium [2]: 1.6 µM
- MIC K. pneumoniae (K. pneumoniae DSM 30104): 6.3 µM
- CC50 at 24 h (in vitro): 75.7 µM

Compound: CC[C@H](C)[C@H](NC(=O)CNC(=O)[C@@H](N)CCSC)C(=O)NCC(=O)N[C@@H](CCCCN)C(=O)N[C@@H](Cc1ccccc1)C(=O)N[C@@H](CCC(N)=O)C(=O)N[C@@H](CCCCN)C(=O)N[C@@H](CCSC)C(=O)N[C@@H](CCCNC(=N)N)C(=O)N[C@@H](Cc1ccccc1)C(=O)N[C@H](C(=O)NCC(=O)N[C@@H](C)C(=O)N[C@H](C(=O)N[C@@H](CCCNC(=N)N)C(=O)N[C@@H](C)C(=O)N[C@@H](CO)C(=O)N[C@@H](CCCCN)C(=O)NCC(=O)N[C@H](C(=O)N[C@@H](C)C(=O)N[C@@H](CCCCN)C(=O)NCC(=O)N[C@@H](CC(C)C)C(=O)N[C@@H](CC(C)C)C(=O)N[C@@H](CCCNC(=N)N)C(=O)N[C@H](C(=O)N[C@@H](C)C(=O)N[C@@H](C)C(=O)N[C@H](C(=O)N[C@@H](CCCNC(=N)N)C(=O)N[C@H](C(=O)NCC(=O)N[C@@H](CCCNC(=N)N)C(=O)N[C@@H](CCCNC(=N)N)C(=O)N[C@@H](C)C(=O)N[C@@H](CC(C)C)C(=O)N[C@H](C(=O)N[C@H](C(N)=O)[C@@H](C)O)[C@@H](C)O)[C@@H](C)O)[C@@H](C)CC)[C@@H](C)CC)C(C)C)[C@@H](C)CC)[C@@H](C)CC [AMP #21] (H-MGIGKFQKMRFIGAIRASKGVAKGLLRIAAIRTGRRALTT-NH2)
- B. subtilis MIC (B. subtilis PY79): 0.5 µM
- MIC P. aeruginosa (P. aeruginosa DSM 1117): 12.5 µM (≈ 53.9 µg/mL)
- MIC A. baumannii [1]: 0.8 µM (≈ 3.45 µg/mL)
- E. coli MIC (E. coli MG1655): 10.4 µM
- MIC E. faecium [2]: 6.3 µM (≈ 27.2 µg/mL)
- MIC K. pneumoniae (K. pneumoniae DSM 30104): 25.0 µM (≈ 108 µg/mL)
- CC50 at 24 h (in vitro): > 250 µM

Compound: H-MKEKKFFFFCFKKRRGFYKRRFFCKTTCFTYCFYKPRGTKTMPYVFSE-NH2 (cysteines drawn unpaired) [AMP #14]
- MIC P. aeruginosa (P. aeruginosa DSM 1117): 12.5 µM
- MIC A. baumannii [1]: 25.0 µM
- MIC S. aureus (MRSA) [3]: 25.0 µM
- MIC E. faecium [2]: 6.3 µM

Compound: MKAKKWFESLFKTFFKKGKGIYPKSSFEKEKKTDKKKKFGGWVWFKK-NH2 [AMP #16]
- B. subtilis MIC (B. subtilis PY79): 0.8 µM
- MIC P. aeruginosa (P. aeruginosa DSM 1117): 12.5 µM
- MIC A. baumannii [1]: 1.6 µM
- E. coli MIC (E. coli MG1655): 6.3 µM
- MIC E. faecium [2]: 1.6 µM
- MIC K. pneumoniae (K. pneumoniae DSM 30104): 2.4 µM
- CC50 at 24 h (in vitro): 39.3 µM

Compound: polymyxin B
- release of outer membrane vesicles (OMV) compared to untreated E. coli (Escherichia coli MG1655): only significantly different group

Compound: MKQPSKTKTHFKYFLLFLKSVKKVAGFKKKKKKYHWRSYKEGSCFRKRT-NH2 [AMP #13]
- B. subtilis MIC (B. subtilis PY79): 1.6 µM
- MIC P. aeruginosa (P. aeruginosa DSM 1117): 12.5 µM
- MIC A. baumannii [1]: 3.1 µM
- E. coli MIC (E. coli MG1655): 25.0 µM
- MIC E. faecium [2]: 1.6 µM
- MIC K. pneumoniae (K. pneumoniae DSM 30104): 6.3 µM
- CC50 at 24 h (in vitro): 25.8 µM
- MIC S. pneumoniae (S. pneumoniae D39): 12.5 µM

Compound: H-MCFCFKAGPKICRGLQRKKKKFKYQTSFTKTGFGFLTKPKSPAR-NH2 (cysteines drawn unpaired) [AMP #10]
- B. subtilis MIC (B. subtilis PY79): 0.6 µM
- E. coli MIC (E. coli MG1655): 50.0 µM
- CC50: 105 µM

Compound: MRRKTPVKWKTFFKALKHKKKIFKKTFEKFKFLAKGPAFLKGFDQKLKS-NH2 [AMP #5]
- B. subtilis MIC (B. subtilis PY79): 0.5 µM
- MIC P. aeruginosa (P. aeruginosa DSM 1117): 3.1 µM
- MIC A. baumannii [1]: 1.0 µM
- E. coli MIC (E. coli MG1655): 2.1 µM
- MIC E. faecium [2]: 1.6 µM
- MIC K. pneumoniae (K. pneumoniae DSM 30104): 0.8 µM
- CC50 at 24 h (in vitro): 68.4 µM
- MIC S. pneumoniae (S. pneumoniae D39): 25.0 µM
